# Test results taken from patent US20210008101A1, “METHODS AND COMPOSITIONS FOR PREVENTING, REDUCING OR ERADICATING TOXICITY CAUSED BY ACETAMINOPHEN (APAP)” (SINEW PHARMA INC., priority 2018, published 2021).
# Entries after “also recorded” stand apart in the source; their conditions may differ.
# Tests used:
# Type in all cases: in vivo, Sprague-Dawley rats
# [1] = system: APAP-induced renal lesions; assay: Histological examination of kidney (H&E) in APAP-induced toxicity animal model; settings: H&E stained kidney section, 200×
# Procedure: (§1) Male Sprague-Dawley rats (weighing 220-300 g) were obtained from Professor Dr. Gonzalez of the American Country Health Research Institute (USA), introduces three male and four female mice, pairs voluntarily reproduces. All of the experiments were performed in adherence with the National Institutes of Health Guidelines for the treatment of animals. All of the mice were maintained in a room with air/humidity control and a 12-h light/dark cycle, and allowed access to food and water ad libitum throughout the experiment.
# (§2) In the single dose study of the antidote effect of APAP metabolic enzyme inhibition on APAP-induced nephrotoxicity, rats were randomly divided into 3 treatment groups: (1) a normal control group (NC, n=5), in which normal SD-rats were orally administrated with saline four times a day for multiple doses at a volume of 1 mL/kg; (2) an APAP control group (APAP, n=5), in which normal SD-rats were orally administrated with APAP in saline at dose of 1 g/kg (1,000 mg/kg) for single oral dose administration; (3) an positive control group (NAC, n=5), in which normal SD-rats were orally administrated with APAP and N-acetylcysteine (NAC) in saline at dose of 1 g/kg and 140 mg/kg for single oral dose administration; (4) the various selected antidote test groups (each groups, n=5), in which normal SD-rats were orally administered with APAP in saline at dose of 1,000 mg/kg and e various antidote agents each at dose of less than or equivalent to 200 mg per 60 kg person body weight of single oral dose administration. In addition, according to US FDA Guidance for Industry “Estimating the Maximum Safe Starting Dose in Initial Clinical Trials for Therapeutics in Adult Healthy Volunteers”, the HED (human equivalent dose) for a human adult of 60 kg can be calculated as follows: HED=animal dose (1,000 mg/kg in rats)×human body weight (60 kg)/6.2=9.677g (about 10 g).
# The kidney groups were fixed in 10% neutral formalin for 48-72 h. Then, tissues were trimmed and processed for a routine histopathological examination. […]
# [2] = system: APAP-induced nephrotoxicity; assay: Serum creatinine and BUN (kidney function) in APAP-induced toxicity animal model; settings: SD-rats, mean ± SD
# Procedure: as §1, §2
# (§3) At the end of the treatment, the animals were sacrificed under diethyl ether anesthesia. Blood was collected from the hearts of the mice into heparin tubes, and plasma was separated by centrifugation at 13,000×g for 5 min at 4° C. Aliquots of plasma were transferred to Eppendorf tubes and stored at −80° C. until analysis.
# Serum creatinine and BUN levels were measured using the commercial kits (BEN) (Biochemical Enterprise, Milano, Italy) CR280 and BK151 in an automatic biochemical analyzer (ChemWell, Palm City, Fla.) at 340 nm and 510 nm, respectively.
# (§4) All data are represented in mean ± standard deviation (SD) and the results are calculated using ANOVA to determine the significance. Statistical Package of the Social Science program (Version 13, SPSS Inc.) is used for calculations followed by post hoc test to examine the least significant difference for multiple comparisons so as to confirm the significant differences between groups and the average difference between groups was significant p<0.05.
# [3] = system: APAP-induced hepatotoxicity; assay: Plasma AST and ALT determination in APAP-induced toxicity animal model; settings: SD-rats, mean ± SD
# Procedure: as §1
# In the single dose study […], rats were randomly divided into 3 treatment groups: (1) a normal control group (NC, n=5), in which normal SD-rats were orally administrated with saline four times a day for multiple doses at a volume of 1 mL/kg; (2) an APAP control group (APAP, n=5), in which normal SD-rats were orally administrated with APAP in saline at dose of 1 g/kg (1,000 mg/kg) for single oral dose administration; (3) an positive control group (NAC, n=5), in which normal SD-rats were orally administrated with APAP and N-acetylcysteine (NAC) in saline at dose of 1 g/kg and 140 mg/kg for single oral dose administration; (4) the various selected antidote test groups (each groups, n=5), in which normal SD-rats were orally administered with APAP in saline at dose of 1,000 mg/kg and e various antidote agents each at dose of less than or equivalent to 200 mg per 60 kg person body weight of single oral dose administration. In addition, according to US FDA Guidance for Industry “Estimating the Maximum Safe Starting Dose in Initial Clinical Trials for Therapeutics in Adult Healthy Volunteers”, the HED (human equivalent dose) for a human adult of 60 kg can be calculated as follows: HED=animal dose (1,000 mg/kg in rats)×human body weight (60 kg)/6.2=9.677g (about 10 g).
# as §3
# Plasma enzyme activities (aspartate aminotransferase [AST] and alanine aminotransferase [ALT]) were determined at 37° C. by using a Synchron LXi 725 (Beckman Instruments, Palo Alto, Calif. USA) with kits provided by the manufacturer.
# as §4
# [4] = system: toxicity (nephrotoxicity and hepatotoxicity) caused by APAP; assay: Overall antidote activity against toxicity caused by APAP (animal model); settings: rats given APAP 1,000 mg/kg; summary of Table 1
# Procedure: as §1, §2
# [5] = APAP alone 1,000 mg/kg single oral dose (toxicity control group), n=5
# [6] = APAP alone 1,000 mg/kg single oral dose (toxicity control group), n=5, listed as AAP
# [7] = APAP 1,000 mg/kg oral plus antidote at high dose
# [8] = APAP 1,000 mg/kg oral plus antidote at low dose
# [9] = APAP 1,000 mg/kg single oral dose plus antidote single oral dose, n=5
smiles,measurement,setting,value
"CC(=O)Nc1ccc(O)cc1 [APAP, N-acetyl-para-aminophenol]","Kidney histology (renal lesions), FIG. 1",[1]; acetaminophen 1 g/kg alone,"severe renal lesions including necrosis, congestion and extravasation of red blood cells"
same,"Kidney histology (renal lesions), FIG. 1","[1]; acetaminophen 1 g/kg alone, listed as acetaminophen","Severe necrosis, congestion and extravasation of red blood cells were seen"
same,BUN (nephrotoxicity),[2]; [5],87.8 ± 6.6 mg/dL
same,Creatinine (nephrotoxicity),[2]; [5],1.13 ± 0.17 mg/dL
same,BUN (nephrotoxicity),[2]; [6],87.8 ± 6.6 mg/dL
same,Creatinine (nephrotoxicity),[2]; [6],1.13 ± 0.17 mg/dL
same,ALT (hepatotoxicity),[3]; [5],382.3±32.1 IU/L
same,AST (hepatotoxicity),[3]; [5],591.0±59.2 IU/L
same,ALT (hepatotoxicity),[3]; [6],382.3 ± 32.1 IU/L
same,AST (hepatotoxicity),[3]; [6],591.0 ± 59.2 IU/L
O=c1c(O)c(-c2ccc(O)cc2)oc2cc(O)cc(O)c12 [Kaempferol],BUN (nephrotoxicity),[2]; [7],31.5 ± 7.6 mg/dL
same,Creatinine (nephrotoxicity),[2]; [7],0.38 ± 0.09 mg/dL
same,BUN (nephrotoxicity),[2]; [8],58.8 ± 7.0 mg/dL
same,Creatinine (nephrotoxicity),[2]; [8],0.70 ± 0.09 mg/dL
same,ALT (hepatotoxicity),[3]; [7],82.2 ± 17.6 IU/L
same,AST (hepatotoxicity),[3]; [7],332.2 ± 27.1 IU/L
same,ALT (hepatotoxicity),[3]; [8],179.4 ± 12.9 IU/L
same,AST (hepatotoxicity),[3]; [8],395.6 ± 32.6 IU/L
same,Antidote activity against toxicity (nephrotoxicity and hepatotoxicity) caused by APAP,[4],effective in reducing or eradicating toxicity
O=c1cc(-c2ccc(O)c(O)c2)oc2cc(O)cc(O)c12 [Luteolin],BUN (nephrotoxicity),[2]; [7],23.7 ± 4.4 mg/dL
same,Creatinine (nephrotoxicity),[2]; [7],0.25 ± 0.07 mg/dL
same,BUN (nephrotoxicity),[2]; [8],31.5 ± 7.3 mg/dL
same,Creatinine (nephrotoxicity),[2]; [8],0.43 ± 0.08 mg/dL
same,ALT (hepatotoxicity),[3]; [7],57.1 ± 14.7 IU/L
same,AST (hepatotoxicity),[3]; [7],223.8 ± 15.5 IU/L
same,ALT (hepatotoxicity),[3]; [8],78.9 ± 15.7 IU/L
same,AST (hepatotoxicity),[3]; [8],279.1 ± 35.1 IU/L
same,Antidote activity against toxicity (nephrotoxicity and hepatotoxicity) caused by APAP,[4],effective in reducing or eradicating toxicity
OC[C@@H](O)[C@@H](O)[C@H](O)[C@H](O)CO [Mannitol],BUN (nephrotoxicity),[2]; [9],41.0 ± 2.6 mg/dL
same,Creatinine (nephrotoxicity),[2]; [9],0.56 ± 0.13 mg/dL
same,ALT (hepatotoxicity),[3]; [9],91.9 ± 8.4 IU/L
same,AST (hepatotoxicity),[3]; [9],365.7 ± 35.5 IU/L
same,Antidote activity against toxicity (nephrotoxicity and hepatotoxicity) caused by APAP,[4],effective in reducing or eradicating toxicity
"CC(=O)N[C@@H](CS)C(=O)O [NAC, N-acetylcysteine, reference compound]","Kidney histology (renal lesions), FIG. 1",[1]; acetaminophen 1 g/kg plus antidote,Mild to moderate degenerations were seen; also recorded: reduced to mild to moderate level
same,BUN (nephrotoxicity),[2]; [9],48.4 ± 9.8 mg/dL
same,Creatinine (nephrotoxicity),[2]; [9],0.64 ± 0.05 mg/dL
same,ALT (hepatotoxicity),[3]; [9],206.7 ± 20.1 IU/L
same,AST (hepatotoxicity),[3]; [9],423.7 ± 38.1 IU/L
O=C1C[C@@H](c2ccc(O)cc2)Oc2cc(O)cc(O)c21 [Nariagenin],BUN (nephrotoxicity),[2]; [9],36.0 ± 7.8 mg/dL
same,Creatinine (nephrotoxicity),[2]; [9],0.32 ± 0.03 mg/dL
same,ALT (hepatotoxicity),[3]; [9],63.1 ± 11.6 IU/L
same,AST (hepatotoxicity),[3]; [9],231.1 ± 39.0 IU/L
same,Antidote activity against toxicity (nephrotoxicity and hepatotoxicity) caused by APAP,[4],effective in reducing or eradicating toxicity
OC[C@H]1O[C@H](O[C@]2(CCl)O[C@H](CCl)[C@@H](O)[C@@H]2O)[C@H](O)[C@@H](O)[C@H]1Cl [Sucralose],BUN (nephrotoxicity),[2]; [9],33.6 ± 2.7 mg/dL
same,Creatinine (nephrotoxicity),[2]; [9],0.40 ± 0.15 mg/dL
same,ALT (hepatotoxicity),[3]; [9],82.8 ± 8.4 IU/L
same,AST (hepatotoxicity),[3]; [9],288.4 ± 33.8 IU/L
same,Antidote activity against toxicity (nephrotoxicity and hepatotoxicity) caused by APAP,[4],effective in reducing or eradicating toxicity
